# US9963467B2, “Boronic acid derivatives and therapeutic uses thereof” (Rempex Pharmaceuticals, Inc., priority 2014, dated 2018)
# What was measured:
# ec302 (TEM-10) [1] = test: Tigemonam potentiation (MPC@4), ec302; format: cell-based
# EC1010 (CMY-6) [2] = test: organism not typed; format: cell-based
# ec308 (SHV-5) [3] = test: Aztreonam potentiation (MPC@4), ec308; format: cell-based; settings: BLI with aztreonam at 4 μg/mL
# KP1086 (OXA-48) = test: Biapenem potentiation (MPC@1), KP1086; settings: BLI with biapenem at 1 μg/mL
# KP1004 (KPC-2) [4] = test: Biapenem potentiation (MPC@1), KP1004; settings: BLI with biapenem at 1 μg/mL
# KP1009 (CTX-M-15) [5] = test: organism not typed; format: cell-based
# KP1010 (SHV-12) [6] = test: Tigemonam potentiation (MPC@4), KP1010; format: cell-based
# KP1010 (SHV-12) [7] = test: Aztreonam potentiation (MPC@4), KP1010; format: cell-based
# ec308 (SHV-5) [8] = test: Tigemonam potentiation (MPC@4), ec308; format: cell-based
# KP1005 (CTX-M-14) [9] = test: Tigemonam potentiation (MPC@4), KP1005; format: cell-based; settings: BLI with tigemonam at 4 μg/mL
# ECL1002 [10] = test: Tigemonam potentiation (MPC@4), ECL1002; format: cell-based; settings: BLI with tigemonam at 4 μg/mL
# ECL1002 [11] = test: Aztreonam potentiation (MPC@4), ECL1002; format: cell-based; settings: BLI with aztreonam at 4 μg/mL
# KP1009 (CTX-M-15) [12] = test: Tigemonam potentiation (MPC@4), KP1009; format: cell-based; settings: BLI with tigemonam at 4 μg/mL
# Pa AmpC = Pa AmpC (Pseudomonas aeruginosa, UniProt P24735); test: Ki, nitrocefin cleavage by purified enzyme, Pa AmpC; format: biochemical; settings: nitrocefin reporter substrate; read-out: Ki (Pa AmpC, NCF)
# Pa AmpC, sequence (P24735 27-397): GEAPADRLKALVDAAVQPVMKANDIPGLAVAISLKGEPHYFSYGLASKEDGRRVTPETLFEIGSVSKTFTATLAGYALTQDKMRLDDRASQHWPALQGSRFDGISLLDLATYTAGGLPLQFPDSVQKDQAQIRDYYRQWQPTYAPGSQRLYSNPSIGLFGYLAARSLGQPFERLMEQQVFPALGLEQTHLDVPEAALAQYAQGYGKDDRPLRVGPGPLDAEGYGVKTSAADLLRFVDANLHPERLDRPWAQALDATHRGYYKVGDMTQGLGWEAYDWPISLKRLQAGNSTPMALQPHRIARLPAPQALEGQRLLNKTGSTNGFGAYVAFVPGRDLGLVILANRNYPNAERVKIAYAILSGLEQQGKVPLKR
# Outline: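 Inhibitor potency was expressed as Ki, measured spectrophotometrically against purified enzyme using nitrocefin cleavage read at 490 nm after a 10 min room-temperature preincubation with inhibitor.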
# KP1005 (CTX-M-14) [13] = test: Aztreonam potentiation (MPC@4), KP1005; format: cell-based; settings: BLI with aztreonam at 4 μg/mL
# [14] = Monomer content of pH adjusted aqueous solutions (LC-UV); format: physicochemical; settings: 1 mg/mL aqueous salt solution, pH adjusted to 7.6 to 8, LC-UV
# Outline: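 Aqueous solutions at 1.00, 10.0 or 100 mg/mL (active fraction) brought to pH 7.6–8 with acid or base, compound fully dissolved. Injected within half an hour of preparation onto C18 reversed-phase LC (0.1% TFA water / 0.085% TFA methanol gradient); UV detection at 220, 254 and 300 nm.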
# P99 = P99 (Enterobacter cloacae, UniProt P05364); test: Ki, nitrocefin cleavage by purified enzyme, P99; format: biochemical; settings: nitrocefin reporter substrate; read-out: Ki (P99, NCF)
# P99, sequence (P05364 21-381): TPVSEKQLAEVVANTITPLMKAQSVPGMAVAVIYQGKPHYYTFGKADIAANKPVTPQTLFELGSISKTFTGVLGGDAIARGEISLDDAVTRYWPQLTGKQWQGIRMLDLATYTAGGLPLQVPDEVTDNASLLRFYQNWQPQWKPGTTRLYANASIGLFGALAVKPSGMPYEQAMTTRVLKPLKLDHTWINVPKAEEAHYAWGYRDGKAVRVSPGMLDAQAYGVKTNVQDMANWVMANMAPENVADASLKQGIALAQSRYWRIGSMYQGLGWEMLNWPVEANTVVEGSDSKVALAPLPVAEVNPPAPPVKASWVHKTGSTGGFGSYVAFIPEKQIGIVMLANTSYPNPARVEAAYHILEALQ
# Outline: (§1)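 Readout: nitrocefin hydrolysis, A490 recorded every 10 sec over 10 min. Enzyme and inhibitor (varied concentrations) preincubated 10 min, RT, in reaction buffer before substrate addition.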
# EC1010 (CMY-6) [15] = test: Tigemonam potentiation (MPC@4), EC1010; format: cell-based; settings: BLI with tigemonam at 4 μg/mL
# KPC-2 = KPC-2 (Klebsiella pneumoniae, UniProt Q9F663); test: Ki, nitrocefin cleavage by purified enzyme, KPC-2; format: biochemical; settings: nitrocefin reporter substrate; read-out: Ki (KPC-2, NCF)
# KPC-2, sequence (Q9F663 25-293, looked up, species assumed): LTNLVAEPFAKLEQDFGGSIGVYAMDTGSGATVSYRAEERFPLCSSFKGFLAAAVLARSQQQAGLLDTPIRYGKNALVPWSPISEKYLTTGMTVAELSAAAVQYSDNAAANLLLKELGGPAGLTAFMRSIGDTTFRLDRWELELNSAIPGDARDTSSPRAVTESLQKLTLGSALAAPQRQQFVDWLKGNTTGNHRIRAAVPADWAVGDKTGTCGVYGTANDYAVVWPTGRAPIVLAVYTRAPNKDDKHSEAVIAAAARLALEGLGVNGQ
# Outline: as §1
# SHV-12 = SHV-12 (Klebsiella pneumoniae, UniProt P0AD64, E235K/G234S/L31Q); test: Ki, nitrocefin cleavage by purified enzyme, SHV-12; format: biochemical; settings: nitrocefin reporter substrate; read-out: Ki (SHV-12, NCF)
# SHV-12, sequence (P0AD64 22-286 L31Q/G234S/E235K): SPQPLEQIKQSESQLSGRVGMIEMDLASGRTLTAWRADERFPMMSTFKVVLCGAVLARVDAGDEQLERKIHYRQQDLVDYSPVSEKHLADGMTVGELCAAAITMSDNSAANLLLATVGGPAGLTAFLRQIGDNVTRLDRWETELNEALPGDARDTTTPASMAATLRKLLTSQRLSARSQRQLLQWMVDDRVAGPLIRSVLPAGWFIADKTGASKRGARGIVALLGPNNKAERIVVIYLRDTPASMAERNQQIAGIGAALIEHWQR
# Outline: as §1
# CTX-M-14 = CTX-M-14 (Escherichia coli, UniProt Q9L5C7); test: Ki, nitrocefin cleavage by purified enzyme, CTX-M-14; format: biochemical; settings: nitrocefin reporter substrate; read-out: Ki (CTX-M-14, NCF)
# CTX-M-14, sequence (Q9L5C7 29-291): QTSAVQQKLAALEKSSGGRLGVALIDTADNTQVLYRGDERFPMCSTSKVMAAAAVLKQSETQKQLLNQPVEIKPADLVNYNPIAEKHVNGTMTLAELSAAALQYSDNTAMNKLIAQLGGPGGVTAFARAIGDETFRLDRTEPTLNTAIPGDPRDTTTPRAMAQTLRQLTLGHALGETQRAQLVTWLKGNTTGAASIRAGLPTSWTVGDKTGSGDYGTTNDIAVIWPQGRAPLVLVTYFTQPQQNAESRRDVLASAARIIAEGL
# Outline: as §1
# ec302 (TEM-10) [16] = test: Aztreonam potentiation (MPC@4), ec302; format: cell-based; settings: BLI with aztreonam at 4 μg/mL
# OXA-48 = OXA-48 (Klebsiella pneumoniae, UniProt Q6XEC0); test: Ki, nitrocefin cleavage by purified enzyme, OXA-48; format: biochemical; settings: nitrocefin reporter substrate; read-out: Ki (OXA-48, NCF)
# OXA-48, sequence (Q6XEC0 23-265, looked up, species assumed): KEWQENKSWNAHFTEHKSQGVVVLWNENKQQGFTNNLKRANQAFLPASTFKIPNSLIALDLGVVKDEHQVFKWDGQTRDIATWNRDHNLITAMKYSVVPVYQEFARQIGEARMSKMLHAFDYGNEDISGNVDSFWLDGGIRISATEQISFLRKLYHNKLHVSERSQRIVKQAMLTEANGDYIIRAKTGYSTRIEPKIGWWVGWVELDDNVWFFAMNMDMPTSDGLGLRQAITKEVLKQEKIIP
# Outline: as §1
# KP1004 (KPC-2) [17] = test: Aztreonam potentiation (MPC@4), KP1004; format: cell-based; settings: BLI with aztreonam at 4 μg/mL
SMILES,TIG MPC4 TEM-10 ec302 (ec302 (TEM-10) [1]),AZT MPC4 CMY-6 EC1010 (EC1010 (CMY-6) [2]),AZT MPC4 SHV-5 ec308 (ec308 (SHV-5) [3]),BPM MPC1 OXA-48 KP1086 (KP1086 (OXA-48)),BPM MPC1 KP1004 KPC-2 (KP1004 (KPC-2) [4]),AZT MPC4 CTX-M-15 KP1009 (KP1009 (CTX-M-15) [5]),TIG MPC4 SHV-12 KP1010 (KP1010 (SHV-12) [6]),TIG MPC4 SHV-5 ec308 (ec308 (SHV-5) [8]),TIG MPC4 CTX-M-14 KP1005 (KP1005 (CTX-M-14) [9]),TIG MPC4 ECL1002 (ECL1002 [10]),AZT MPC4 ECL1002 (ECL1002 [11]),TIG MPC4 CTX-M-15 KP1009 (KP1009 (CTX-M-15) [12]),Ki (Pa AmpC),AZT MPC4 CTX-M-14 KP1005 (KP1005 (CTX-M-14) [13]),% Monomer in 1 mg/mL salt solution [14],Ki (P99),TIG MPC4 CMY-6 EC1010 (EC1010 (CMY-6) [15]),Ki (KPC-2),Ki (SHV-12),Ki (CTX-M-14),other results
"CSCC(=O)N[C@H]1Cc2cccc(C(=O)O)c2OB1O [A, reference compound]",Y (key: X: MIC of less than 1 ng/mL; Y: MIC of 1 μg/mL to 10 μg/mL; Z: MIC of greater than 10 μg/mL),X (key: X: MIC of less than 1 ng/mL; Y: MIC of 1 μg/mL to 10 μg/mL; Z: MIC of greater than 10 μg/mL),X (MIC of less than 1 ng/mL),Y (MIC of 1 μg/mL to 10 μg/mL),X (MIC of less than 1 μg/mL),X (key: X: MIC of less than 1 ng/mL; Y: MIC of 1 μg/mL to 10 μg/mL; Z: MIC of greater than 10 μg/mL),X (key: X: MIC of less than 1 μg/mL; Y: MIC of 1 μg/mL to 10 μg/mL; Z: MIC of greater than 10 μg/mL),X (key: X: MIC of less than 1 μg/mL; Y: MIC of 1 μg/mL to 10 μg/mL; Z: MIC of greater than 10 μg/mL),Y (MIC of 1 μg/mL to 10 μg/mL),X (MIC of less than 1 μg/mL),X (MIC of less than 1 ng/mL),X (MIC of less than 1 μg/mL),1 to 10 nM,X (MIC of less than 1 ng/mL),–,–,–,–,–,–,AZT MPC4 SHV-12 KP1010 (KP1010 (SHV-12) [7]): X (key: X: MIC of less than 1 ng/mL; Y: MIC of 1 μg/mL to 10 μg/mL; Z: MIC of greater than 10 μg/mL)
"CSCC(=O)N[C@H]1Cc2c(F)cc(F)c(C(=O)O)c2OB1O [Compound 32, (R)-5,7-difluoro-2-hydroxy-3-(2-(methylthio)acetamido)-3,4-dihydro-2H-benzo[e][1,2]oxaborinine-8-carboxylic acid]",Z (key: X: MIC of less than 1 ng/mL; Y: MIC of 1 μg/mL to 10 μg/mL; Z: MIC of greater than 10 μg/mL),Y (key: X: MIC of less than 1 ng/mL; Y: MIC of 1 μg/mL to 10 μg/mL; Z: MIC of greater than 10 μg/mL),Y (MIC of 1 μg/mL to 10 μg/mL),Y (MIC of 1 μg/mL to 10 μg/mL),X (MIC of less than 1 μg/mL),Y (key: X: MIC of less than 1 ng/mL; Y: MIC of 1 μg/mL to 10 μg/mL; Z: MIC of greater than 10 μg/mL),X (key: X: MIC of less than 1 μg/mL; Y: MIC of 1 μg/mL to 10 μg/mL; Z: MIC of greater than 10 μg/mL),Y (key: X: MIC of less than 1 ng/mL; Y: MIC of 1 μg/mL to 10 μg/mL; Z: MIC of greater than 10 μg/mL),Y (MIC of 1 μg/mL to 10 μg/mL),Y (MIC of 1 μg/mL to 10 μg/mL),Y (MIC of 1 μg/mL to 10 μg/mL),Y (MIC of 1 μg/mL to 10 μg/mL),> 10 nM,Y (MIC of 1 μg/mL to 10 μg/mL),95.8%,> 10 nM,Y (MIC of 1 μg/mL to 10 μg/mL),> 10 nM,< 1 nM,1 to 10 nM,AZT MPC4 TEM-10 ec302 (ec302 (TEM-10) [16]): Y (MIC of 1 μg/mL to 10 μg/mL); Ki (OXA-48): 1 to 10 nM; AZT MPC4 KPC-2 KP1004 (KP1004 (KPC-2) [17]): Y (MIC of 1 μg/mL to 10 μg/mL)
"CSCC(=O)N[C@@H]1Cc2ccc(F)c(C(=O)O)c2OB1O [Compound 31, (S)-7-fluoro-2-hydroxy-3-(2-(methylthio)acetamido)-3,4-dihydro-2H-benzo[e][1,2]oxaborinine-8-carboxylic acid]",Z (key: X: MIC of less than 1 ng/mL; Y: MIC of 1 μg/mL to 10 μg/mL; Z: MIC of greater than 10 μg/mL),Y (key: X: MIC of less than 1 ng/mL; Y: MIC of 1 μg/mL to 10 μg/mL; Z: MIC of greater than 10 μg/mL),–,Z (MIC of greater than 10 μg/mL),X (MIC of less than 1 μg/mL),Y (key: X: MIC of less than 1 ng/mL; Y: MIC of 1 μg/mL to 10 μg/mL; Z: MIC of greater than 10 μg/mL),X (key: X: MIC of less than 1 μg/mL; Y: MIC of 1 μg/mL to 10 μg/mL; Z: MIC of greater than 10 μg/mL),X (key: X: MIC of less than 1 μg/mL; Y: MIC of 1 μg/mL to 10 μg/mL; Z: MIC of greater than 10 μg/mL),Y (MIC of 1 μg/mL to 10 μg/mL),X (MIC of less than 1 μg/mL),Y (MIC of 1 μg/mL to 10 μg/mL),Y (MIC of 1 μg/mL to 10 μg/mL),> 10 nM,Y (MIC of 1 μg/mL to 10 μg/mL),99.7%,> 10 nM,Y (MIC of 1 μg/mL to 10 μg/mL),> 10 nM,< 1 nM,1 to 10 nM,AZT MPC4 TEM-10 ec302 (ec302 (TEM-10) [16]): Y (MIC of 1 μg/mL to 10 μg/mL); Ki (OXA-48): 1 to 10 nM; AZT MPC4 KPC-2 KP1004 (KP1004 (KPC-2) [17]): Y (MIC of 1 μg/mL to 10 μg/mL)
